Laboratory results taken from US12721838B2 (Henry Ford Health System, priority 2020, dated 2026).

Each compound was assayed against T1, Trib2-Luciferase (Luc-Trib2) fusion (Homo sapiens, UniProt Q92519) (assay: cell-based). Conditions: HFF, read-out: Luciferase activity (%).
T1 sequence (Q92519 with tags, fused parts or gaps): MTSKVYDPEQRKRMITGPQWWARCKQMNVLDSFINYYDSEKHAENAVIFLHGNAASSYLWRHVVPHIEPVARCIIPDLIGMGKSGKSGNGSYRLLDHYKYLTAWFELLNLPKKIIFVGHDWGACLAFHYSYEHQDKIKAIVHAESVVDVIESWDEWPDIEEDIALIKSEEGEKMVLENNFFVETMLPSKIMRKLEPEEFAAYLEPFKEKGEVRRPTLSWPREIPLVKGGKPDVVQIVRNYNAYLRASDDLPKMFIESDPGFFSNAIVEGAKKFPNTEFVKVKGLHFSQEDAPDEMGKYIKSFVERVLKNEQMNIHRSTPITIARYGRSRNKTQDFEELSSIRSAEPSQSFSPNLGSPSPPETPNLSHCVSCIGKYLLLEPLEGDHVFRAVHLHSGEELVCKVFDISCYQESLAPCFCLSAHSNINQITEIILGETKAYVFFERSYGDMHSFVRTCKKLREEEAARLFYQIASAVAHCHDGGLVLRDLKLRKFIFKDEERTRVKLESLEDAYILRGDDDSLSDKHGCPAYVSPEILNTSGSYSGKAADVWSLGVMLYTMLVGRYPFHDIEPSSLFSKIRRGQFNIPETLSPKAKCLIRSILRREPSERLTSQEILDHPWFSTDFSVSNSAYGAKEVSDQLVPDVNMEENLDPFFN

SMILES	activity at 10 µM [%]
Cc1cn([C@@H]2C[C@@H](O)[C@H](CO)O2)c(=O)[nH]c1=O [Telbivudine]	91
CC[C@]12CCCN3CCc4c(n(c5ccccc45)[C@@](O)(C(=O)OC)C1)[C@@H]32 [Vincamine]	80
CCCCCCCCc1ccc(CCC(N)(CO)CO)cc1 [Fingolimod]	80
CN(C)[C@@H](CCOc1cccc2ccccc12)c1ccccc1 [Dapoxetine]	88
OC1(c2ccc(Cl)c(C(F)(F)F)c2)CCN(CCCC(c2ccc(F)cc2)c2ccc(F)cc2)CC1 [Penfluridol]	71
C=C[C@]1(C)C[C@@H](OC(=O)CSC(C)(C)CNC(=O)[C@H](N)C(C)C)[C@]2(C)[C@H](C)CC[C@]3(CCC(=O)[C@H]32)[C@@H](C)[C@@H]1O [Valnemulin]	83
c1cc(CN2CCCNCCNCCCNCC2)ccc1CN1CCCNCCNCCCNCC1 [Plerixafor]	93
Cc1nnc(NS(=O)(=O)c2ccc(N)cc2)s1 [Sulfamethizole]	94
CCOC(=O)CC(SP(=S)(OC)OC)C(=O)OCC (stereo not drawn) [Malathion]	91
C#Cc1cccc(Nc2ncnc3cc(OCCOC)c(OCCOC)cc23)c1 [Erlotinib]	50
CC1CCc2c(N3CCC(O)CC3)c(F)cc3c(=O)c(C(=O)O)cn1c23 (stereo not drawn) [Nadifloxacin]	96
OCCN(CCO)c1nc(N2CCCCC2)c2nc(N(CCO)CCO)nc(N3CCCCC3)c2n1 [Dipyridamole]	98
CCCC1O[C@@H]2C[C@H]3[C@@H]4CCC5=CC(=O)C=C[C@]5(C)[C@H]4[C@@H](O)C[C@]3(C)[C@]2(C(=O)CO)O1 (stereo partly drawn) [Budesonide]	83
CN(C)c1cc(NC(=O)CNC(C)(C)C)c(O)c2c1C[C@H]1C[C@H]3[C@H](N(C)C)C(O)=C(C(N)=O)C(=O)[C@@]3(O)C(O)=C1C2=O [Tigecycline]	63
CCCc1nc(C(C)(C)O)c(C(=O)O)n1Cc1ccc(-c2ccccc2-c2nnn[nH]2)cc1 [Olmesartan]	80
O[C@@H]1CO[C@H]2[C@@H]1OC[C@@H]2O [Isosorbide]	91
CCC(=O)NCC[C@@H]1CCc2ccc3c(c21)CCO3 [Ramelteon]	100
COc1cc([C@@H]2c3cc4c(cc3[C@@H](O[C@@H]3O[C@@H]5CO[C@@H](c6cccs6)O[C@H]5[C@H](O)[C@H]3O)[C@H]3COC(=O)[C@H]23)OCO4)cc(OC)c1O [Teniposide]	70
O=C(Nc1ccc([N+](=O)[O-])cc1Cl)c1cc(Cl)ccc1O [Niclosamide]	62
Cc1c(OCC(F)(F)F)ccnc1C[S+]([O-])c1nc2ccccc2[nH]1 (stereo not drawn) [Lansoprazole]	78
CCOC(=O)N[C@@H]1CC[C@@H]2[C@@H](C1)C[C@H]1C(=O)O[C@H](C)[C@H]1[C@H]2/C=C/c1ccc(-c2cccc(F)c2)cn1 [Vorapaxar]	59
Nc1ccc(S(=O)(=O)Nc2ncccn2)cc1 [Sulfadiazine]	70
Nc1nc(N)c2nc(-c3ccccc3)c(N)nc2n1 [Triamterene]	100

SMILES	activity at 10 µM [%]
C[C@@H](CN1CC(=O)NC(=O)C1)N1CC(=O)NC(=O)C1 [Dexrazoxane]	100
O=C(CCCN1CC=C(n2c(=O)[nH]c3ccccc32)CC1)c1ccc(F)cc1 [Droperidol]	100
CC(C)(C)c1nc(-c2cccc(NS(=O)(=O)c3c(F)cccc3F)c2F)c(-c2ccnc(N)n2)s1 [Dabrafenib]	72
COc1ccc(CN2CCNCC2)c(OC)c1OC [Trimetazidine]	100
CCCOc1ccc(S(=O)(=O)NCCC2CCCN2C)cc1-c1nc2c(CCC)nn(C)c2c(=O)[nH]1 (stereo not drawn) [Udenafil]	100
CN1CCC(=C2c3ccccc3CCn3c(C=O)cnc32)CC1 [Alcaftadine]	100
Fc1ccc([C@@H]2CCNC[C@H]2COc2ccc3c(c2)OCO3)cc1 [Paroxetine]	93
CC(=O)N1C[C@H](O)C[C@H]1C(=O)O [Oxaceprol]	100
C[N+](C)(C)C[C@H](O)CC(=O)[O-] [Levocarnitine]	84
CN(C)CCCN1c2ccccc2CCc2ccccc21 [Imipramine]	86
Cc1cccn2c(=O)c(-c3nnn[nH]3)cnc12 [Pemirolast]	88
CC1(C)CCC(CN2CCN(c3ccc(C(=O)NS(=O)(=O)c4ccc(NCC5CCOCC5)c([N+](=O)[O-])c4)c(Oc4cnc5[nH]ccc5c4)c3)CC2)=C(c2ccc(Cl)cc2)C1 [Venetoclax]	184
NC(N)=Nc1nc(CSCCC(N)=NS(N)(=O)=O)cs1 [Famotidine]	100
O=C(O)c1cc(=O)c2c(OCC(O)COc3cccc4oc(C(=O)O)cc(=O)c34)cccc2o1 [Cromolyn]	93
CC1(C)CCC(C)(C)c2cc(NC(=O)c3ccc(C(=O)O)cc3)ccc21 [Tamibarotene]	100
CC(C)N1CCN(c2ccc(OCC3COC(Cn4cncn4)(c4ccc(Cl)cc4Cl)O3)cc2)CC1 (stereo not drawn) [Terconazole]	82
CC(C)(Oc1ccc(Cl)cc1)C(=O)O [Clofibric acid]	87
CN1CCN2c3ccccc3Cc3ccccc3C2C1 (stereo not drawn) [Mianserin]	55
O=C(O)CCCc1ccc(N(CCCl)CCCl)cc1 [Chlorambucil]	96
CC[C@H]1OC(=O)[C@H](C)[C@@H](O[C@H]2C[C@@](C)(OC)[C@@H](O)[C@H](C)O2)[C@H](C)[C@@H](O[C@@H]2O[C@H](C)C[C@H](N(C)C)[C@H]2O)[C@](C)(OC)C[C@@H](C)C(=O)[C@H](C)[C@@H](O)[C@]1(C)O [Clarithromycin]	97
CN1C(=O)COc2c(C(=O)NC3CN4CCC3CC4)cc(Cl)cc21 (stereo not drawn) [Azasetron]	100
CC1=C(C(=O)OCCN(Cc2ccccc2)c2ccccc2)C(c2cccc([N+](=O)[O-])c2)C(P2(=O)OCC(C)(C)CO2)=C(C)N1 (stereo not drawn) [Efonidipine]	98
CN1[C@@H]2CC[C@H]1C[C@@H](OC(=O)C(CO)c1ccccc1)C2 (stereo partly drawn) [Atropine]	67

SMILES	activity at 10 µM [%]
NCCC[C@H](NC(=O)[C@@H]1CCCN1C(=O)[C@@H]1CSSC[C@H](N)C(=O)N[C@@H](Cc2ccc(O)cc2)C(=O)N[C@@H](Cc2ccccc2)C(=O)N[C@@H](CCC(N)=O)C(=O)N[C@@H](CC(N)=O)C(=O)N1)C(=O)NCC(N)=O [Ornipressin]	27
COc1cc2nc(N3CCN(C(=O)c4ccco4)CC3)nc(N)c2cc1OC [Prazosin]	49
C[C@]12C=CC(=O)C=C1CC[C@H]1[C@@H]3C[C@@H](O)[C@](O)(C(=O)CO)[C@@]3(C)C[C@H](O)[C@@]12F [Triamcinolone]	72
CCCCc1nc(C)c(CC(=S)N(C)C)c(=O)n1Cc1ccc(-c2ccccc2-c2nnn[nH]2)cc1 [Fimasartan]	88
CN1C[C@@H]2C[C@H]1CN2c1cc2c(cc1F)c(=O)c(C(=O)O)cn2C1CC1 [Danofloxacin]	81
COC(=O)C1=C(C#N)NC(C)=C(C(=O)OC(C)C)C1c1cccc([N+](=O)[O-])c1 (stereo not drawn) [Nilvadipine]	89
O=C1Nc2ccc(Cl)cc2[C@@](C#CC2CC2)(C(F)(F)F)O1 [Efavirenz]	89
C[C@H]1c2cccc(O)c2C(=O)C2=C(O)[C@]3(O)C(=O)C(C(N)=O)=C(O)[C@@H](N(C)C)[C@@H]3[C@@H](O)[C@@H]21 [Doxycycline]	91
C[C@]12CC[C@@H]3c4ccc(O)cc4CC[C@H]3[C@@H]1CCC2=O [Estrone]	82
N=C(N)NC(=O)Cc1c(Cl)cccc1Cl [Guanfacine]	100
CC(=O)OCC(=O)[C@@]12OC(C)(C)O[C@@H]1C[C@H]1[C@@H]3C[C@H](F)C4=CC(=O)C=C[C@]4(C)[C@@]3(F)[C@@H](O)C[C@@]12C [Fluocinonide]	78
Cc1ccc(C(=O)Nc2ccc(CN3CCN(C)CC3)c(C(F)(F)F)c2)cc1C#Cc1cnc2cccnn12 [Ponatinib]	42
Cc1cccc(C)c1OCC(C)N (stereo not drawn) [Mexiletine]	86
[H]/N=C(/N)NS(=O)(=O)c1ccc(N)cc1 [Sulfaguanidine]	84
CCc1c2c(nc3ccc(OC(=O)N4CCC(N5CCCCC5)CC4)cc13)-c1cc3c(c(=O)n1C2)COC(=O)[C@]3(O)CC [Irinotecan]	85
CCCOc1ccc(C(=O)OCCN(CC)CC)cc1N [Proparacaine]	88
Cn1c([N+](=O)[O-])cnc1COC(N)=O [Ronidazole]	100
O=C1CN2Cc3c(ccc(Cl)c3Cl)N=C2N1 [Anagrelide]	92
O=c1[nH]c(=O)n(C2CCCO2)cc1F (stereo not drawn) [Tegafur]	100
CC1(C)S[C@@H]2[C@H](NC(=O)[C@H](C(=O)O)c3ccsc3)C(=O)N2[C@H]1C(=O)O [Ticarcillin]	87
CC(C)OC(=O)C(C)(C)Oc1ccc(C(=O)c2ccc(Cl)cc2)cc1 [Fenofibrate]	92
C[C@@](Cc1ccc(O)c(O)c1)(NN)C(=O)O [Carbidopa]	92
COc1cccc2c1C(=O)c1c(O)c3c(c(O)c1C2=O)C[C@@](O)(C(=O)CO)C[C@@H]3O[C@H]1C[C@H](N)[C@H](O)[C@H](C)O1 [Doxorubicin]	28
